From the supplement of paper PMC10307832

Key:
Test in all cases: relative viability (nuclei count vs DMSO), 5 days (fraction); higher = more cells survive
[1] = compound: C(C(=O)C(=O)O)Br [Bromopyruvate] + Nc1nc2[nH]cc(CCc3ccc(C(=O)N[C@@H](CCC(=O)O)C(=O)O)cc3)c2c(=O)[nH]1 [Pemetrexed] (partner 0.2 µM)
How it was run: (§1)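 Relative viability was taken as the ratio of nuclei in treated wells to nuclei in vehicle wells. Lung cancer cell lines in 1536-well plates received compounds by pin tool one day after seeding, either one drug alone or a fixed anchor-drug dose plus five library-drug doses (not always all listed) in √10 steps. Nuclei were counted on 4× images after 5 days of treatment, and values are medians of duplicate plates.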

[2] = compound: CC(O)(CS(=O)(=O)c1ccc(F)cc1)C(=O)Nc1ccc(C#N)c(C(F)(F)F)c1 [Bicalutamide] + O=C(CCCCCCC(=O)Nc1ccccc1)NO [Vorinostat] (partner 1 µM)
How it was run: as §1

[3] = compound: CC(O)(CS(=O)(=O)c1ccc(F)cc1)C(=O)Nc1ccc(C#N)c(C(F)(F)F)c1 [Bicalutamide] + CS(=O)(=O)N1CCN(Cc2cc3nc(-c4cccc5[nH]ncc45)nc(N4CCOCC4)c3s2)CC1 [Pictilisib] (partner 1 µM)
How it was run: as §1

Bromopyruvate + Olaparib = compound: C(C(=O)C(=O)O)Br [Bromopyruvate] + O=C(c1cc(Cc2n[nH]c(=O)c3ccccc23)ccc1F)N1CCN(C(=O)C2CC2)CC1 [Olaparib] (partner 8 µM)
How it was run: as §1

NCI-H2347
relative viability ([1]; first compound 1 µM): 0.42
relative viability ([1]; first compound 3.162 µM): 0.471
relative viability ([1]; first compound 10 µM): 0.486
relative viability ([1]; first compound 31.62 µM): 0.44
relative viability ([1]; first compound 100 µM): 0.43
relative viability ([2]; first compound 0.08 µM): 0.574
relative viability ([2]; first compound 0.253 µM): 0.587
relative viability ([2]; first compound 0.8 µM): 0.709
relative viability ([2]; first compound 2.53 µM): 0.581
relative viability ([3]; first compound 0.08 µM): 0.735
relative viability ([3]; first compound 0.253 µM): 0.728
relative viability ([3]; first compound 0.8 µM): 0.876
relative viability ([3]; first compound 2.53 µM): 0.632
relative viability (Bromopyruvate + Olaparib; first compound 1 µM): 0.56
relative viability (Bromopyruvate + Olaparib; first compound 3.162 µM): 0.536
relative viability (Bromopyruvate + Olaparib; first compound 10 µM): 0.511
relative viability (Bromopyruvate + Olaparib; first compound 31.62 µM): 0.559
relative viability (Bromopyruvate + Olaparib; first compound 100 µM): 0.57

NCI-H2405
relative viability ([1]; first compound 1 µM): 1.14
relative viability ([1]; first compound 3.162 µM): 1.06
relative viability ([1]; first compound 10 µM): 1.24
relative viability ([1]; first compound 100 µM): 0.728
relative viability ([2]; first compound 0.08 µM): 1.09
relative viability ([2]; first compound 0.253 µM): 0.985
relative viability ([2]; first compound 0.8 µM): 1.49
relative viability ([2]; first compound 2.53 µM): 0.975
relative viability ([3]; first compound 0.08 µM): 0.478
relative viability ([3]; first compound 0.253 µM): 0.421
relative viability ([3]; first compound 0.8 µM): 0.556
relative viability ([3]; first compound 2.53 µM): 0.368
relative viability (Bromopyruvate + Olaparib; first compound 1 µM): 0.879
relative viability (Bromopyruvate + Olaparib; first compound 3.162 µM): 0.859
relative viability (Bromopyruvate + Olaparib; first compound 10 µM): 0.916
relative viability (Bromopyruvate + Olaparib; first compound 100 µM): 0.402

NCI-H3122
relative viability ([1]; first compound 1 µM): 0.209
relative viability ([1]; first compound 3.162 µM): 0.193
relative viability ([1]; first compound 10 µM): 0.186
relative viability ([1]; first compound 31.62 µM): 0.183
relative viability ([1]; first compound 100 µM): 0.192
relative viability ([2]; first compound 0.08 µM): 1.01
relative viability ([2]; first compound 0.253 µM): 0.946
relative viability ([2]; first compound 0.8 µM): 1.07
relative viability ([2]; first compound 2.53 µM): 0.887
relative viability ([3]; first compound 0.08 µM): 0.665
relative viability ([3]; first compound 0.253 µM): 0.645
relative viability ([3]; first compound 0.8 µM): 0.676
relative viability ([3]; first compound 2.53 µM): 0.652
relative viability (Bromopyruvate + Olaparib; first compound 1 µM): 0.647
relative viability (Bromopyruvate + Olaparib; first compound 3.162 µM): 0.663
relative viability (Bromopyruvate + Olaparib; first compound 10 µM): 0.631
relative viability (Bromopyruvate + Olaparib; first compound 31.62 µM): 0.586
relative viability (Bromopyruvate + Olaparib; first compound 100 µM): 0.604

PC-3 [JPC-3]
relative viability ([1]; first compound 1 µM): 1.3
relative viability ([1]; first compound 10 µM): 0.783
relative viability ([1]; first compound 100 µM): 1.11
relative viability ([2]; first compound 0.08 µM): 0.809
relative viability ([2]; first compound 0.253 µM): 0.887
relative viability ([2]; first compound 0.8 µM): 1.14
relative viability ([2]; first compound 2.53 µM): 0.808
relative viability ([3]; first compound 0.08 µM): 0.76
relative viability ([3]; first compound 0.253 µM): 0.56
relative viability ([3]; first compound 0.8 µM): 0.822
relative viability ([3]; first compound 2.53 µM): 0.723
relative viability (Bromopyruvate + Olaparib; first compound 1 µM): 1.22
relative viability (Bromopyruvate + Olaparib; first compound 10 µM): 1.11
relative viability (Bromopyruvate + Olaparib; first compound 100 µM): 1.11

PC-14
relative viability ([1]; first compound 1 µM): 0.141
relative viability ([1]; first compound 3.162 µM): 0.143
relative viability ([1]; first compound 10 µM): 0.14
relative viability ([1]; first compound 31.62 µM): 0.154
relative viability ([1]; first compound 100 µM): 0.123
relative viability ([2]; first compound 0.08 µM): 0.854
relative viability ([2]; first compound 0.253 µM): 0.605
relative viability ([2]; first compound 0.8 µM): 0.732
relative viability ([2]; first compound 2.53 µM): 0.574
relative viability ([3]; first compound 0.08 µM): 0.894
relative viability ([3]; first compound 0.253 µM): 0.652
relative viability ([3]; first compound 0.8 µM): 0.707
relative viability ([3]; first compound 2.53 µM): 0.659
relative viability (Bromopyruvate + Olaparib; first compound 1 µM): 0.297
relative viability (Bromopyruvate + Olaparib; first compound 3.162 µM): 0.368
relative viability (Bromopyruvate + Olaparib; first compound 10 µM): 0.161
relative viability (Bromopyruvate + Olaparib; first compound 31.62 µM): 0.32
relative viability (Bromopyruvate + Olaparib; first compound 100 µM): 0.205

RERF-LC-KJ
relative viability ([1]; first compound 1 µM): 0.49
relative viability ([1]; first compound 3.162 µM): 0.507
relative viability ([1]; first compound 10 µM): 0.457
relative viability ([1]; first compound 31.62 µM): 0.49
relative viability ([1]; first compound 100 µM): 0.468
relative viability ([2]; first compound 0.08 µM): 0.779
relative viability ([2]; first compound 0.253 µM): 0.606
relative viability ([2]; first compound 0.8 µM): 0.864
relative viability ([2]; first compound 2.53 µM): 0.564
relative viability ([3]; first compound 0.08 µM): 0.628
relative viability ([3]; first compound 0.253 µM): 0.506
relative viability ([3]; first compound 0.8 µM): 0.634
relative viability ([3]; first compound 2.53 µM): 0.613
relative viability (Bromopyruvate + Olaparib; first compound 1 µM): 0.981
relative viability (Bromopyruvate + Olaparib; first compound 3.162 µM): 0.857
relative viability (Bromopyruvate + Olaparib; first compound 10 µM): 0.954
relative viability (Bromopyruvate + Olaparib; first compound 31.62 µM): 0.942
relative viability (Bromopyruvate + Olaparib; first compound 100 µM): 0.852

SK-LU-1
relative viability ([1]; first compound 1 µM): 0.998
relative viability ([1]; first compound 3.162 µM): 0.961
relative viability ([1]; first compound 10 µM): 1.02
relative viability ([1]; first compound 31.62 µM): 0.886
relative viability ([1]; first compound 100 µM): 0.874
relative viability ([2]; first compound 0.08 µM): 0.871
relative viability ([2]; first compound 0.253 µM): 0.856
relative viability ([2]; first compound 0.8 µM): 0.82
relative viability ([2]; first compound 2.53 µM): 0.699
relative viability ([3]; first compound 0.08 µM): 0.6
relative viability ([3]; first compound 0.253 µM): 0.503
relative viability ([3]; first compound 0.8 µM): 0.715
relative viability ([3]; first compound 2.53 µM): 0.59
relative viability (Bromopyruvate + Olaparib; first compound 1 µM): 0.425
relative viability (Bromopyruvate + Olaparib; first compound 3.162 µM): 0.416
relative viability (Bromopyruvate + Olaparib; first compound 10 µM): 0.492
relative viability (Bromopyruvate + Olaparib; first compound 31.62 µM): 0.367
relative viability (Bromopyruvate + Olaparib; first compound 100 µM): 0.424

SK-MES-1
relative viability ([1]; first compound 1 µM): 0.999
relative viability ([1]; first compound 3.162 µM): 0.974
relative viability ([1]; first compound 10 µM): 0.941
relative viability ([1]; first compound 31.62 µM): 0.94
relative viability ([1]; first compound 100 µM): 1.01
relative viability ([2]; first compound 0.08 µM): 1.21
relative viability ([2]; first compound 0.253 µM): 1.07
relative viability ([2]; first compound 0.8 µM): 1.19
relative viability ([2]; first compound 2.53 µM): 1.03
relative viability ([3]; first compound 0.08 µM): 0.351
relative viability ([3]; first compound 0.253 µM): 0.39
relative viability ([3]; first compound 0.8 µM): 0.382
relative viability ([3]; first compound 2.53 µM): 0.357
relative viability (Bromopyruvate + Olaparib; first compound 1 µM): 0.802
relative viability (Bromopyruvate + Olaparib; first compound 3.162 µM): 0.738
relative viability (Bromopyruvate + Olaparib; first compound 10 µM): 0.85
relative viability (Bromopyruvate + Olaparib; first compound 31.62 µM): 0.626
relative viability (Bromopyruvate + Olaparib; first compound 100 µM): 0.554

SW 1573
relative viability ([1]; first compound 1 µM): 0.783
relative viability ([1]; first compound 3.162 µM): 0.792
relative viability ([1]; first compound 10 µM): 0.899
relative viability ([1]; first compound 31.62 µM): 0.436
relative viability ([1]; first compound 100 µM): 0.0549
relative viability ([2]; first compound 0.08 µM): 1.26
relative viability ([2]; first compound 0.253 µM): 0.586
relative viability ([2]; first compound 0.8 µM): 1.12
relative viability ([2]; first compound 2.53 µM): 0.652
relative viability ([3]; first compound 0.08 µM): 0.564
relative viability ([3]; first compound 0.253 µM): 0.475
relative viability ([3]; first compound 0.8 µM): 0.461
relative viability ([3]; first compound 2.53 µM): 0.535
relative viability (Bromopyruvate + Olaparib; first compound 1 µM): 0.555
relative viability (Bromopyruvate + Olaparib; first compound 3.162 µM): 0.469
relative viability (Bromopyruvate + Olaparib; first compound 10 µM): 0.475
relative viability (Bromopyruvate + Olaparib; first compound 31.62 µM): 0.358
relative viability (Bromopyruvate + Olaparib; first compound 100 µM): 0.0623
